Key:
Staphylococcus aureus = Staphylococcus aureus host cell invasion assay in HUVEC, flow cytometry; assay type: cell-based
Method: In one embodiment, human umbilical vein endothelial cells (HUVEC, Life Technologies) are cultured in M200 medium supplemented with LSGS. RAW 264.7 cells (American Type Culture Collection, ATCC, Manassas, Va.) are cultured in RPMI supplemented with 10% FBS and L-glutamine. All cell types are maintained at 5% CO2, 37° C., in 75 cm^2 vented cap flasks (Thermo-Fisher). For assays, cultured cells are plated at 1×10^5 cells/ml in 35 mm culture dishes coated with Attachment Factor. The next day, cells are pretreated in culture medium containing the vehicle control or ML 141. For compound delivery, ML 141 first is suspended into DMSO or into PEG at a concentration of 5 mM. The 5 mM solution is diluted to 1 mM in the solvent and then diluted to the final concentration for each experiment in either serum-containing or serum-free medium. For vehicle control treatment, the same volume of PEG or DMSO as that of ML 141 is added to medium. The following day, the invasion assay is performed. For the shorter duration experiments, compound is added on the same day as the invasion assay, 1 hour prior to bacteria.
In another embodiment, HUVEC (Millipore, Billerica, Mass.) are cultured in EndoGRO LS Complete Media (Millipore) and are maintained at 5% CO2, 37° C., in 75 cm^2 vented cap flasks (Thermo-Fisher). For the invasion assay, cultured cells are plated at 1×10^4 cells/ml in 96-well culture dishes coated with Attachment Factor. The next day, cells are pretreated in culture medium containing the vehicle control, ML 141, or ML 141 structural analog. For compound delivery, ML 141 and structural analogs first are suspended into PEG at a concentration of 5 mM. The 5 mM solution is diluted to 1 mM in the solvent and then is diluted to the final concentration for each experiment in serum containing medium. For vehicle control treatment, the same volume of PEG as that of ML 141 or of ML 141 structural analog is added to the medium. The following day, the invasion assay is performed. Bacteria are added directly to medium containing vehicle control, ML 141, or the ML 141 structural analog.
Two days prior to the assay, TSB is inoculated with S. aureus (American Type Culture Collection #29213) and incubated overnight (225 rpm, 37° C.). Bacteria are subcultured the next day into fresh TSB. On the day of the assay, bacteria are pelleted (10000×g, 37° C., 3 min), are washed in saline, are pelleted as above, are resuspended in saline, then fluorescently labeled by incubation with rabbit anti-mouse IgG Alexa Fluor 488 (final concentration 8 μg/ml, RT, 20 min). Protein A, a S. aureus cell surface protein, avidly binds IgG thereby labeling the bacteria. Labeled bacteria are washed twice as above and are resuspended to 3×10^8 CFU/ml in saline. Host cells are incubated with the bacteria for 1 hour (1.2×10^8 CFU/ml for same-day recovery, 5×10^6 for recovery after 48 hours, 1.4×10^7 CFU/ml; 5% CO2, 37° C.). Following infection, extracellular bacteria are removed by extensive washes with PBS and incubation of the host cells with antimicrobials that have limited mammalian membrane permeability (lysostaphin, 20 μg/ml and gentamicin, 50 μg/ml; 45 min for same-day recovery studies, 48 hours for 2-day recovery studies; 5% CO2, 37° C.). To detect the level of infection using flow cytometry, cells that have been infected with fluorescently-labeled bacteria are washed extensively with PBS, lifted from 96-well plate by incubation with trypsin, washed extensively in FACS buffer (2% BSA/0.1% sodium azide/PBS), fixed (FACS buffer containing 0.74% formaldehyde), and are counted using an Accuri flow cytometer (BD, Franklin Lakes, N.J.). They are also lifted from culture dishes using cell scrapers, pelleted, fixed (1% BSA/0.74% formaldehyde/PBS), and are counted using an Accuri flow cytometer. For enumeration of the infecting bacteria, intracellular bacteria are released from host cells using 1% saponin/PBS (20 min, 5% CO2, 37° C.) and serial dilutions are plated on TSA (16 hours, 37° C.). […]

RAW 264.7 cells = test: Cytotoxicity by propidium iodide, RAW 264.7 cells; assay type: cell-based; details: RAW 264.7 pretreated 18-20 h
[1] = In vivo toxicity, single intraperitoneal injection; details: dissolved in polyethylene glycol, C57BL/6 mice
Method: Specific pharmacologic inhibition of CDC42 has been examined to determine whether it is sufficient in the inhibition of host cell invasion by S. aureus. Host cell cytotoxicity was undetectable below 30 μM in vitro. The highest concentration of ML 141 introduced in vivo without detectable toxicity was 100 mg/kg body weight [BW]. The compound was dissolved in polyethylene glycol and administered as a single intraperitoneal injection to C57BL/6 mice.

## COc1ccc(C2CC(c3ccccc3)=NN2c2ccc(S(N)(=O)=O)cc2)cc1 (stereo not shown) [ML 141, 4-[3-(4-methoxyphenyl)-5-phenyl-3,4-dihydropyrazol-2-yl]benzenesulfonamide]
Staphylococcus aureus; ML 141 10.0 μM in PEG, 18 hours, HUVEC infected 1 hour
  decrease of invasion: more than 80%
Staphylococcus aureus; Staphylococcus aureus, HUVEC, 18 h, read-out: inhibition of invasion
  inhibition at 10 µM: ~50%
RAW 264.7 cells
  Mean fluorescence intensity (×10^3 ± SEM), Compound (10 μM): 2.5 ± 0.3 ×10^3
[1]
  highest concentration introduced in vivo without detectable toxicity: 100 mg/kg body weight

From US10183032B2, “Methods for treating bacterial infection” (Ball State Innovation Corporation, priority 2012, dated 2019)
